“Also recorded” adds a separate entry of the source.
Legend:
[1] = tested on: Tissue Factor positive cell lines; assay: Cell death and release of ATP and HMGB1 from Tissue Factor positive cell lines; assay type: cell-based
Excerpt: Auristatin ADC payloads disrupt the microtubule networks resulting in altered ER localization and function, which ultimately results in ER stress.

[2] = tested on: T cells; assay: T cell activation in CSFE labeled PBMCs fed killed MDA-MB-231 cells, with or without pembrolizumab; assay type: cell-based, human; details: 48 hours, without pembrolizumab
Method: FIG. 8A-8C is a series of graphs in which Tissue Factor positive MDA-MB-231 cells killed with various agents were fed to CSFE labeled human peripheral blood mononuclear cells (PBMCs) in the presence or absence of the PD1 targeting antibody pembrolizumab for 48 hours and T cells activation assessed by A) decreased CSFE fluorescent indicative of T cell proliferation and B) and C) cytokine production.
Induction of the innate immune response following exposure to cancer cells undergoing ICD sets up secondary T cell activation, which can be enhanced by concomitant pembrolizumab treatment.

[3] = tested on: relapsed, recurrent, and/or metastatic cervical cancer; assay: Phase I/II trial of tisotumab vedotin (NCT02001623); assay type: in vivo, human
Excerpt: Further investigation of tisotumab vedotin as a monotherapy and in combination with immunotherapy (e.g., an anti-PD-1 antibody) in a larger cohort of patients with cervical cancer is needed.
Three adverse events of special interest were identified during treatment with tisotumab vedotin alone in the Phase IIa trial discussed above: 1) ocular adverse events; 2) adverse events of peripheral neuropathy; and 3) adverse events of bleeding. […] In the present trial, in order to prevent ocular AEs, all subjects in both treatment groups (i.e., tisotumab vedotin alone or in combination with pembrolizumab) must adhere to the following ocular pre-medication guidelines: 1) use of preservative-free lubricating eye drops during the whole treatment phase of the trial (i.e., from first dose of tisotumab vedotin until the safety follow-up visit). Lubricating eye drops should be administered according to the product prescribing information; 2) it is recommended not to wear contact lenses while treated with tisotumab vedotin from the first dose until a safety follow-up visit; 3) use of refrigerator-based eye cooling pads during infusion, e.g. THERA PEARL Eye Mask or similar, to be applied immediately before infusion in accordance with the instructions provided with the eye cooling pads; 4) administration of local ocular vasoconstrictor before infusion (brimonidine tartrate 0.2% eye drops or similar, 3 drops in each eye immediately prior to start of infusion; otherwise to be used in accordance with the product prescribing information). […] Steroid eye drops should be administered as 1 drop in each eye, 3 times daily, for 3 days, or used in accordance with the product prescribing information.
For AEs of peripheral neuropathy (including neuropathy peripheral; peripheral sensory neuropathy; peripheral motor neuropathy; polyneuropathy): Peripheral neuropathy is a well-known adverse reaction to treatment with platinum and taxane based chemotherapies as well as MMAE-based ADCs and is reported in approximately 35% of subjects who received treatment with tisotumab vedotin. […] A mitigation plan, including dose reduction (See Table 4) and dose delays, is in place to control the rates and severity of peripheral neuropathy observed in subjects treated with tisotumab vedotin. For Grade 2 and 3, or initial or worsening of pre-existing condition, hold tisotumab vedotin until event has improved to ≤grade 1 then reduce next dose according to dose reduction shown in Table 4. No action is required to be taken with pembrolizumab. For ≥Grade 4, permanently discontinue tisotumab vedotin. Contact sponsor to discuss continuation of pembrolizumab alone.
For AEs of bleeding: Bleeding events are considered of special interest due to the mode of action of tisotumab vedotin. […] Dose modification and toxicity management guidelines are in place (Table 7).

[4] = tested on: MDA-MB-231 (breast cell carcinoma); assay: Western blot analysis of ER stress induction in MDA-MB-231 cells; assay type: cell-based; details: MDA-MB-231, 18 hours (legend: 16 hours)
Method: (§1) Induction of cell death and release of ICD danger signals occurs concomitant with initiation of an ER stress response. Two Tissue Factor positive cell lines, HPAFII (pancreatic carcinoma) and MDA-MB-231 (breast cell carcinoma) were exposed to tisotumab vedotin ADC, an Isotype-MMAE ADC (H00-MMAE, IgG1 MMAE), or free MMAE for 18 hours and induction of ER stress monitored by western blot analysis. Phosphorylation of inositol-requiring transmembrane kinase/endonuclease 1 (IRE1) was detected after treatment with tisotumab vedotin ADC or MMAE free drug (FIG. 6). […] The ability for auristatins to prime the immune system to recognize tumor antigens opens the door for a myriad of combinatorial therapeutic options.

[5] = tested on: HPAFII (pancreatic carcinoma); assay: Western blot analysis of ER stress induction in HPAFII cells; assay type: cell-based; details: 18 hours (legend: 16 hours)
Method: as §1

[6] = tested on: CD14+ monocyte/macrophages; assay: Monocyte/macrophage activation in PBMCs fed killed MDA-MB-231 cells; assay type: cell-based, human
Excerpt: FIGS. 7A and 7B is a series of graphs in which Tissue Factor positive MDA-MB-231 cells killed with various agents were fed to human peripheral blood mononuclear cells (PBMCs) and immune activation assessed by increased expression of activations markers on innate CD14+ monocyte/macrophages and induction of chemokine and cytokine production.
Immunogenic cell death, as mediated by MMAE, is regulated cell death that activates adaptive immune responses against antigens from dead and dying tumor cells, and allows for the generation of robust innate immune cell activation and subsequent cytotoxic T cell responses targeted towards specific tumor cell antigens. […] Furthermore, these monocyte/macrophages conditioned by ICD-killed cells promote activation of T cells, as evidenced by production of signature inflammatory cytokines associated with cytotoxic T cell responses.

[7] = subjects who received tisotumab vedotin
[8] = compared to IgG1-MMAE ADC or tisotumab alone

tisotumab vedotin: antibody-drug conjugate comprising an antibody that binds to tissue factor (TF), a protease-cleavable linker, and the microtubule disrupting agent MMAE
cell death [1]: undergo cell death | ATP release/secretion ([1]; FIG. 5A): drove robust A) ATP secretion; also recorded: release the ICD related molecules ATP | activity on multiple Tissue Factor positive cell lines ([1]; FIG. 5B): active on multiple Tissue Factor positive cell lines | HMGB1 release/secretion ([1]; FIG. 5C): drove robust A) ATP secretion and C) HMGB1 release; also recorded: release the ICD related molecules ATP (FIG. 5A) and HMGβ1 | T cell proliferation (CSFE dilution) [2]: drove T cell proliferation | production of IFNγ [2]: production of T cell specific cytokines such as IL12P70 and IFNγ | production of IL12p70 [2]: production of T cell specific cytokines such as IL12P70 and IFNγ | efficacy ([3]; 2.0 mg/kg tisotumab vedotin): robust efficacy | safety profile ([3]; 2.0 mg/kg tisotumab vedotin): manageable safety profile | bleeding events: epistaxis, frequency ([3]; in vivo): most common reported AE | bleeding events: epistaxis, grade ([3]; in vivo): nearly all of the cases are grade 1 | clinically relevant perturbations in aPTT or prothrombin time (PT) ([3]; in vivo): have not been observed | peripheral neuropathy as cause of permanent discontinuation [3, 7]: leading cause of permanently discontinuation | peripheral neuropathy, grade of reported cases [3, 7]: majority of the reported cases are grade 1-2 | peripheral neuropathy, share of subjects [3, 7]: approximately 35% | ocular AEs: grade 1-2 conjunctivitis ([3]; tisotumab vedotin alone): frequently reported | ATF4 cleavage (PERK pathway) [4]: upregulation of ATF4 cleavage | phosphorylation of IRE1 [4]: detected | phosphorylation of JNK [4]: increased phosphorylation | ATF4 cleavage (PERK pathway) [5]: upregulation of ATF4 cleavage | phosphorylation of IRE1 [5]: detected | phosphorylation of JNK [5]: increased phosphorylation | chemotactic and inflammatory mediators from monocyte/macrophages after uptake of dead cells [6]: elicit strong chemotactic and inflammatory mediators | monocyte/macrophage activation, CD86 expression by flow cytometry [6, 8]: drove monocyte/macrophage activations | release of innate chemokines including MIP 1β [6, 8]: induced release of innate chemokines including MIP 1β

— patent publication US12324841B2, “Methods of treating cancer with a combination of an anti-PD-1 antibody and an anti-tissue factor antibody-drug conjugate” (GENMAB A/S, priority 2018, dated 2025)
